Data published in PubChem BioAssay (NCI).
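Growth conditions: 96-well plates. Treatment: test compound, 48 hours, 5 concentrations. Analysis: linear interpolation between bracketing concentrations; unreached endpoints set to highest concentration. Abbreviation: GI50, concentration required for 50% inhibition of growth. TGI denotes the concentration required for complete inhibition of growth.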

Columns and labels:
Assay in all cases: NCI tumour cell line growth inhibition, 48 h
[1] = system: 786-0 renal
[2] = system: A498 renal
[3] = system: A549 NSCLC
[4] = system: ACHN renal
[5] = system: BT-549 breast
[6] = system: CAKI-1 renal
[7] = system: CCRF-CEM leukemia
[8] = system: COLO 205 colon
[9] = system: DU-145 prostate
[10] = system: EKVX NSCLC
[11] = system: HCC-2998 colon
[12] = system: HCT-116 colon
[13] = system: HCT-15 colon
[14] = system: HL-60(TB) leukemia
[15] = system: HOP-62 NSCLC
[16] = system: HOP-92 NSCLC
[17] = system: HS 578T breast
[18] = system: HT29 colon
[19] = system: IGROV1 ovarian
[20] = system: K-562 leukemia
[21] = system: KM12 colon
[22] = system: LOX IMVI melanoma
[23] = system: M14 melanoma
[24] = system: MALME-3M melanoma
[25] = system: MCF7 breast
[26] = system: MDA-MB-231 breast
[27] = system: MDA-MB-435
[28] = system: MOLT-4 leukemia
[29] = system: NCI-H226 lung
[30] = system: NCI-H23 lung
[31] = system: NCI-H460 lung
[32] = system: NCI-H522 lung
[33] = system: NCI/ADR-RES ovarian
[34] = system: OVCAR-3 ovarian
[35] = system: OVCAR-4 ovarian
[36] = system: OVCAR-5 ovarian
[37] = system: OVCAR-8 ovarian
[38] = system: PC-3 prostate
[39] = system: RPMI-8226 leukemia
[40] = system: RXF 393 renal
[41] = system: SF-268 CNS
[42] = system: SF-295 CNS
[43] = system: SF-539 CNS
[44] = system: SK-MEL-2 melanoma
[45] = system: SK-MEL-28 melanoma
[46] = system: SK-MEL-5 melanoma
[47] = system: SK-OV-3 ovarian
[48] = system: SN12C renal
[49] = system: SNB-19 CNS
[50] = system: SW-620 colon
[51] = system: T-47D breast
[52] = system: TK-10 renal
[53] = system: U251 CNS
[54] = system: UACC-257 melanoma
[55] = system: UACC-62 melanoma
[56] = system: UO-31 renal

C/C(=C\c1ccn(-c2ccc(N)cc2C(F)(F)F)n1)[C@@H]1C[C@@H]2O[C@]2(C)CCC[C@H](C)[C@H](O)[C@@H](C)C(=O)C(C)(C)[C@@H](O)CC(=O)O1
GI50 [1]: 569 nM | TGI [1]: > 11100 nM | GI50 [2]: 303 nM | TGI [2]: 2270 nM | GI50 [3]: 508 nM | TGI [3]: > 11100 nM | GI50 [4]: 512 nM | TGI [4]: > 11100 nM | GI50 [5]: 553 nM | TGI [5]: > 11100 nM | GI50 [6]: 7810 nM | TGI [6]: > 11100 nM | GI50 [7]: 413 nM | TGI [7]: > 11100 nM | GI50 [8]: 250 nM | TGI [8]: 773 nM | GI50 [9]: 401 nM | TGI [9]: 2870 nM | GI50 [10]: 747 nM | TGI [10]: > 11100 nM | GI50 [11]: 306 nM | TGI [11]: 6230 nM | GI50 [12]: 201 nM | TGI [12]: > 11100 nM | GI50 [13]: 429 nM | TGI [13]: > 11100 nM | GI50 [14]: 296 nM | TGI [14]: 1070 nM | GI50 [15]: 490 nM | TGI [15]: 9980 nM | GI50 [16]: 1270 nM | TGI [16]: > 11100 nM | GI50 [17]: 399 nM | TGI [17]: 4300 nM | GI50 [18]: 117 nM | TGI [18]: 996 nM | GI50 [19]: 778 nM | TGI [19]: > 11100 nM | GI50 [20]: 356 nM | TGI [20]: > 11100 nM | GI50 [21]: 254 nM | TGI [21]: > 11100 nM | GI50 [22]: 476 nM | TGI [22]: > 11100 nM | GI50 [23]: 242 nM | TGI [23]: 1560 nM | GI50 [24]: 736 nM | TGI [24]: > 11100 nM | GI50 [25]: 85.9 nM | TGI [25]: > 11100 nM | GI50 [26]: 1510 nM | TGI [26]: > 11100 nM | GI50 [27]: 59.9 nM | TGI [27]: 286 nM | GI50 [28]: 533 nM | TGI [28]: > 11100 nM | GI50 [29]: 6350 nM | TGI [29]: > 11100 nM | GI50 [30]: 548 nM | TGI [30]: > 11100 nM | GI50 [31]: 302 nM | TGI [31]: > 11100 nM | GI50 [32]: 178 nM | TGI [32]: 428 nM | GI50 [33]: 4380 nM | TGI [33]: > 11100 nM | GI50 [34]: 344 nM | TGI [34]: 2660 nM | GI50 [35]: > 11100 nM | TGI [35]: > 11100 nM | GI50 [36]: 519 nM | TGI [36]: > 11100 nM | GI50 [37]: 506 nM | TGI [37]: > 11100 nM | GI50 [38]: 406 nM | TGI [38]: > 11100 nM | GI50 [39]: 374 nM | TGI [39]: > 11100 nM | GI50 [40]: 395 nM | TGI [40]: 4210 nM | GI50 [41]: 481 nM | TGI [41]: > 11100 nM | GI50 [42]: 314 nM | TGI [42]: 2190 nM | GI50 [43]: 305 nM | TGI [43]: 1860 nM | GI50 [44]: 303 nM | TGI [44]: 902 nM | GI50 [45]: 1060 nM | TGI [45]: > 11100 nM | GI50 [46]: 356 nM | TGI [46]: > 11100 nM | GI50 [47]: 420 nM | TGI [47]: > 11100 nM | GI50 [48]: 1570 nM | TGI [48]: > 11100 nM | GI50 [49]: 553 nM | TGI [49]: > 11100 nM | GI50 [50]: 301 nM | TGI [50]: > 11100 nM | GI50 [51]: 658 nM | TGI [51]: > 11100 nM | GI50 [52]: 612 nM | TGI [52]: > 11100 nM | GI50 [53]: 386 nM | TGI [53]: > 11100 nM | GI50 [54]: 1030 nM | TGI [54]: > 11100 nM | GI50 [55]: 488 nM | TGI [55]: > 11100 nM | GI50 [56]: 954 nM | TGI [56]: > 11100 nM
